Experimental findings from patent publication US20250195530A1, “POLQ INHIBITORS” (ASTRAZENECA AB, priority 2022, published 2025) are described below.

For one experiment, the system named is DLD-1 BRCA2−/− cells. As to the kind of experiment: Homologous recombination synthetic lethal inhibition of proliferation, DLD-1 BRCA2-/- (Cell Titre Glo 3D). Format: cell-based. The note with it: for IC50: Homo sapiens; for POLQ PD Prolif Lumin BRCA2 −/− mean pIC50: DLD-1 BRCA2 −/−. The procedure, abridged: (§1)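 Proliferation of HR-deficient DLD-1 BRCA2−/− versus isogenic wild-type DLD-1 was measured by ATP luminescence (CellTiter-Glo 3D). Compound exposure lasted 12 or 7 days, respectively, with a fresh dose on day 6. IC50 was the concentration halving maximal signal.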

Another experiment deals with DLD-1 cells. The experiment in a line: Inhibition of proliferation, DLD-1 BRCA2 wt control (Cell Titre Glo 3D). The experiment is classed as cell-based. The note with it: for IC50: Homo sapiens; for POLQ PD Prolif Lumin DLD1 mean pIC50: DLD1 BRCA2 wt. In a few lines:
as §1

Where [1] appears, read: DLD-1, 288 h, DLD-1 BRCA2−/− cells, 12 days, read-out: POLQ PD Prolif Lumin BRCA2 −/− mean pIC50 (converted).
[2] abbreviates: DLD-1, 168 h, DLD-1 BRCA2 wt cells, 7 days, read-out: POLQ PD Prolif Lumin DLD1 mean pIC50 (converted).
Where [3] appears, read: DLD-1, DLD-1 BRCA2-/- proliferation, column head only partly shown, read-out: POLQ PD Prolif Lumin (converted).
Where [4] appears, read: DLD-1, DLD-1 BRCA2 wt control proliferation, column head only partly shown, read-out: POLQ PD Prolif Lumin (converted).
The mark [5] stands for this setting: DLD-1, DLD-1 BRCA2 −/−, mean, read-out: POLQ PD Prolif Lumin BRCA2 −/− mean pIC50 (converted).
[6] abbreviates: DLD-1, DLD1 BRCA2 wt, mean, read-out: POLQ PD Prolif Lumin DLD1 mean pIC50 (converted).

Where two headings read alike, the source gives them in different places. Some results are limits rather than exact numbers.

As to `Cc1ccnc(Cn2c(-c3ccc(O[C@H]4CCC(=O)NC4)cc3Cl)nc3c(OC4(C)CC4)ncnc32)c1` [Example 41, (S)-5-(3-Chloro-4-(6-(1-methylcyclopropoxy)-9-((4-methylpyridin-2-yl)methyl)-9H-purin-8-yl)phenoxy)piperidin-2-one], the IC50 in the experiment with DLD-1 BRCA2−/− cells (DLD-1, 288 h, DLD-1 BRCA2−/−, 12 days, Cell Titre Glo 3D, read-out: POLQ PD Prolif Lumin BRCA2 −/− Mean pIC50 (converted)) was 794 nM; in the experiment with DLD-1 cells (DLD-1, 168 h, DLD-1 (BRCA2 wt control), 7 days, Cell Titre Glo 3D, read-out: POLQ PD Prolif Lumin DLD1 Mean pIC50 (converted)), greater than 10000 nM.

As for `Cc1cnc(Cn2c(-c3ccc(O[C@H]4CCNC4)cc3Cl)nc3c(OC4(C)CC4)ncnc32)s1` [Example T70, (S)-2-((8-(2-chloro-4-(pyrrolidin-3-yloxy)phenyl)-6-(1-methylcyclopropoxy)-9H-purin-9-yl)methyl)-5-methylthiazole], the IC50 was 631 nM with DLD-1 BRCA2−/− cells (DLD-1, DLD-1 BRCA2 −/− cells, mean, read-out: POLQ PD Prolif Lumin BRCA2 −/− mean pIC50 (converted)) and greater than 10000 nM with DLD-1 cells (DLD-1, DLD1 BRCA2 wt cells, mean, read-out: POLQ PD Prolif Lumin DLD1 mean PIC50 (converted)).

On to `CC1(Oc2ncnc3c2nc(-c2ccc(OCCN4CCNCC4)cc2Cl)n3Cc2csc(Cl)n2)CC1` [Example L7, 2-chloro-4-((8-(2-chloro-4-(2-(piperazin-1-yl)ethoxy)phenyl)-6-(1-methylcyclopropoxy)-9H-purin-9-yl)methyl)thiazole], for which the figures for the IC50 in the experiment on DLD-1 BRCA2−/− cells (setting [1]) and in the experiment with DLD-1 cells (setting [2]) were 1580 nM and greater than 10000 nM, respectively.

Turning to `CC(CCOc1ccc(-c2nc3c(OC4(C)CC4)ncnc3n2Cc2cc(F)cc(F)c2)c(Cl)c1)C(=O)O` (racemic) [Example T260, 4-(3-chloro-4-(9-(3,5-difluorobenzyl)-6-(1-methylcyclopropoxy)-9H-purin-8-yl)phenoxy)-2-methylbutanoic acid], the results for the IC50 in the experiment with DLD-1 BRCA2−/− cells (setting [3]) and with DLD-1 cells (setting [4]) were 251 nM and greater than 10000 nM, respectively.

Turning to `Cc1ccnc(Cn2c(-c3ccc(CC(=O)NC(C)C)cc3Cl)nc3c(OC4(C)CC4)ncnc32)c1` [Example T357, 2-(3-chloro-4-(6-(1-methylcyclopropoxy)-9-((4-methylpyridin-2-yl)methyl)-9H-purin-8-yl)phenyl)-N-isopropylacetamide], the IC50 in the experiment on DLD-1 BRCA2−/− cells (DLD-1, first proliferation column (c5), taken as DLD-1 BRCA2-/-, read-out: POLQ PD Prolif Lumin (converted)) is 398 nM; in the experiment with DLD-1 cells (DLD-1, second proliferation column (c6), taken as DLD-1 BRCA2 wt, read-out: POLQ PD Prolif Lumin (converted)), greater than 10000 nM.

Regarding `CC1(Oc2ncnc3c2nc(-c2ccc(OCCN4CCNCC4)cc2Cl)n3Cc2cc(Cl)ccn2)CC1` [Example 10, 8-(2-Chloro-4-(2-(piperazin-1-yl)ethoxy)phenyl)-9-((4-chloropyridin-2-yl)methyl)-6-(1-methylcyclopropoxy)-9H-purine], the results for the IC50 with DLD-1 BRCA2−/− cells (setting [1]) and in the experiment on DLD-1 cells (setting [2]) were 200 nM and greater than 10000 nM, respectively.

In the case of `Cc1ccnc(Cn2c(-c3ccc(C(=O)N4CCC(O)CC4)cc3Cl)nc3c(OC4(C)CC4)ncnc32)c1` [Example T460, (3-chloro-4-(6-(1-methylcyclopropoxy)-9-((4-methylpyridin-2-yl)methyl)-9H-purin-8-yl)phenyl)(4-hydroxypiperidin-1-yl)methanone], the IC50 is 3160 nM in the experiment with DLD-1 BRCA2−/− cells (DLD-1, proliferation, luminescence, taken as DLD-1 BRCA2-/-, read-out: POLQ PD Prolif Lumin (converted)) and greater than 10000 nM in the experiment on DLD-1 cells (DLD-1, proliferation, luminescence, second Prolif column (c6), taken as DLD-1 BRCA2 wt control, read-out: POLQ PD Prolif Lumin (converted)).

With `CN1CCN(CCOc2ccc(-c3nc4c(OC5(C)CC5)ncnc4n3CCc3ccccc3)c(Cl)c2)CC1` [Example E4, 8-(2-chloro-4-(2-(4-methylpiperazin-1-yl)ethoxy)phenyl)-6-(1-methylcyclopropoxy)-9-phenethyl-9H-purine], the IC50 in the experiment on DLD-1 BRCA2−/− cells (setting [1]) was 200 nM; in the experiment with DLD-1 cells (setting [2]) it was 7940 nM.

For the compound `Cc1cc(OCCN)ncc1-c1nc2c(OC3(C)CC3)ncnc2n1Cc1ccccc1` [Example G8, 2-((5-(9-benzyl-6-(1-methylcyclopropoxy)-9H-purin-8-yl)-4-methylpyridin-2-yl)oxy)ethan-1-amine], the IC50 is 2000 nM with DLD-1 BRCA2−/− cells (setting [1]) and 7940 nM in the experiment on DLD-1 cells (setting [2]).

Turning to `CC1(Oc2ncnc3c2nc(-c2ccc(N4CCNCC4)cc2Cl)n3Cc2ccccc2)CC1` [Example C7, 9-benzyl-8-(2-chloro-4-(piperazin-1-yl)phenyl)-6-(1-methylcyclopropoxy)-9H-purine], the values for the IC50 with DLD-1 BRCA2−/− cells (setting [1]) and in the experiment with DLD-1 cells (setting [2]) were 251 nM and 6310 nM, respectively.

As for `COc1ccc(Cl)c(F)c1Cn1c(-c2ccc(OCCC(C)C(=O)O)cc2Cl)nc2c(OC3(C)CC3)ncnc21` (racemic) [Example U57, 4-(3-chloro-4-(9-(3-chloro-2-fluoro-6-methoxybenzyl)-6-(1-methylcyclopropoxy)-9H-purin-8-yl)phenoxy)-2-methylbutanoic acid], the IC50 in the experiment with DLD-1 BRCA2−/− cells (setting [5]) is 126 nM; in the experiment on DLD-1 cells (setting [6]) it was greater than 10000 nM.

With `CC1(Oc2ncnc3c2nc(-c2cccc(OCCCOCC(=O)O)c2Cl)n3Cc2cc(Cl)ccc2C#N)CC1` [Example U98, 2-(3-(2-chloro-3-(9-(5-chloro-2-cyanobenzyl)-6-(1-methylcyclopropoxy)-9H-purin-8-yl)phenoxy)propoxy)acetic acid], the IC50 was 31.6 nM with DLD-1 BRCA2−/− cells (setting [5]) and greater than 10000 nM with DLD-1 cells (setting [6]).

Turning to `COc1ccc(F)cc1Cn1c(-c2cccc(O[C@H]3C[C@@H](C(=O)O)C3)c2Cl)nc2c(OC3(C)CC3)ncnc21` [Example U74, (1s,3s)-3-(2-chloro-3-(9-(5-fluoro-2-methoxybenzyl)-6-(1-methylcyclopropoxy)-9H-purin-8-yl)phenoxy)cyclobutane-1-carboxylic acid], the “POLQ PD Prolif Lumin BRCA2 −/− mean pIC50” value in the experiment with DLD-1 BRCA2−/− cells (mean) stood at 7.2. Also, in the experiment with DLD-1 cells (mean), the “POLQ PD Prolif Lumin DLD1 mean pIC50” value is listed as less than 5.0.

Regarding `Cc1ccnc(Cn2c(-c3ccc(CCN4CCC(O)CC4)cc3Cl)nc3c(OC4(C)CC4)ncnc32)c1` [Example T591, 1-(3-chloro-4-(6-(1-methylcyclopropoxy)-9-((4-methylpyridin-2-yl)methyl)-9H-purin-8-yl)phenethyl)piperidin-4-ol], the IC50 in the experiment on DLD-1 BRCA2−/− cells (DLD-1, first proliferation column, DLD-1 BRCA2-/-, read-out: POLQ PD Prolif Lumin (converted)) is 316 nM; in the experiment on DLD-1 cells (DLD-1, second proliferation column, DLD-1 BRCA2 wt control, read-out: POLQ PD Prolif Lumin (converted)) it was greater than 10000 nM.

For `COc1ccc(-c2nc3c(OC4(C)CC4)ncnc3n2Cc2ccccc2)c(Cl)c1` [Example N8, 9-Benzyl-8-(2-chloro-4-methoxyphenyl)-6-(1-methylcyclopropoxy)-9H-purine], the IC50 in the experiment on DLD-1 BRCA2−/− cells (setting [1]) is 251 nM; in the experiment on DLD-1 cells (setting [2]) it was greater than 10000 nM.

With `COc1ccc(C)cc1Cn1c(-c2cccc(OCCCOCC(=O)O)c2Cl)nc2c(OC3(C)CC3)ncnc21` [Example U93, 2-(3-(2-chloro-3-(9-(2-methoxy-5-methylbenzyl)-6-(1-methylcyclopropoxy)-9H-purin-8-yl)phenoxy)propoxy)acetic acid], the IC50 is 12.6 nM in the experiment with DLD-1 BRCA2−/− cells (setting [5]) and greater than 10000 nM in the experiment with DLD-1 cells (setting [6]).

As for `Cc1ccnc(Cn2c(-c3ccc(OCCN(C)C)cc3Cl)nc3c(OC4(C#N)CC4)ncnc32)c1` [Example T203, 1-((8-(2-chloro-4-(2-(dimethylamino)ethoxy)phenyl)-9-((4-methylpyridin-2-yl)methyl)-9H-purin-6-yl)oxy)cyclopropane-1-carbonitrile], the IC50 with DLD-1 BRCA2−/− cells (setting [3]) was 398 nM; in the experiment on DLD-1 cells (setting [4]), greater than 10000 nM.

Turning to `Cc1cnc(Cn2c(-c3ccc(OCCN4CCCC4)cc3Cl)nc3c(OC4(C)CC4)ncnc32)s1` [Example T239, 2-((8-(2-chloro-4-(2-(pyrrolidin-1-yl)ethoxy)phenyl)-6-(1-methylcyclopropoxy)-9H-purin-9-yl)methyl)-5-methylthiazole], the IC50 in the experiment on DLD-1 BRCA2−/− cells (setting [3]) was 251 nM; with DLD-1 cells (setting [4]) it was greater than 10000 nM.

Take `CC1(Oc2ncnc3c2nc(-c2ccc(OCCN4CC5(CSC5)C4)cc2Cl)n3Cc2ccccc2)CC1` [Example H23, 6-(2-(4-(9-benzyl-6-(1-methylcyclopropoxy)-9H-purin-8-yl)-3-chlorophenoxy)ethyl)-2-thia-6-azaspiro[3.3]heptane]: the IC50 in the experiment on DLD-1 BRCA2−/− cells (setting [1]) is 126 nM; with DLD-1 cells (setting [2]), 2510 nM.

Turning to `CC(C)Oc1ncnc2c1nc(-c1ccc(OCCN3CCN(C)CC3)cc1)n2Cc1ccccc1` [Example B1, 9-benzyl-6-isopropoxy-8-(4-(2-(4-methyl-piperazin-1-yl)ethoxy)phenyl)-9H-purine], the IC50 in the experiment on DLD-1 BRCA2−/− cells (setting [1]) was 1000 nM; in the experiment on DLD-1 cells (setting [2]), 7940 nM.

As for `CC(C)(Oc1ncnc2c1nc(-c1ccc(OCCN3CCNCC3)cc1Cl)n2Cc1ccccc1)C(F)(F)F` [Example 11, 9-Benzyl-8-(2-chloro-4-(2-(piperazin-1-yl)ethoxy)phenyl)-6-((1,1,1-trifluoro-2-methylpropan-2-yl)oxy)-9H-purine], the results for the IC50 in the experiment on DLD-1 BRCA2−/− cells (setting [1]) and in the experiment on DLD-1 cells (setting [2]) were 251 nM and 794 nM, respectively.

With `COc1ccc(Cl)cc1Cn1c(-c2ccc(O[C@H]3CC[C@@H](C(=O)O)CC3)cc2Cl)nc2c(OC3(C)CC3)ncnc21` [Example U40, (1s,4s)-4-(3-chloro-4-(9-(5-chloro-2-methoxybenzyl)-6-(1-methylcyclopropoxy)-9H-purin-8-yl)phenoxy)cyclohexane-1-carboxylic acid], in the experiment on DLD-1 BRCA2−/− cells (mean), the “POLQ PD Prolif Lumin BRCA2 −/− mean pIC50” value was 7. Also, the “POLQ PD Prolif Lumin DLD1 mean pIC50” value with DLD-1 cells (mean) is less than 5.1.
